Laboratory results taken from patent US20260125375A1 (Pfizer Inc., priority 2022, published 2026).
Read-outs that look alike come from different tables or passages of the source.

Columns and labels:
C-CBL (residues 46-435) = molecular target: T1, C-CBL (residues 46-435) (Homo sapiens, UniProt P22681); test: Ligand Displacement Assay (LDA), HTRF competitive binding against BODIPY-labeled fluorescent tracer, C-CBL; details: geometric mean of the number of tests, read-out: C-CBL Ki (nM) GMean
T1 construct: Purified CBL-B (residues 36-427) and C-CBL (residues 46-435) proteins from baculovirus-infected insect cells; made in house; host or cells: baculovirus-infected insect cells
T1 sequence (P22681 46-435): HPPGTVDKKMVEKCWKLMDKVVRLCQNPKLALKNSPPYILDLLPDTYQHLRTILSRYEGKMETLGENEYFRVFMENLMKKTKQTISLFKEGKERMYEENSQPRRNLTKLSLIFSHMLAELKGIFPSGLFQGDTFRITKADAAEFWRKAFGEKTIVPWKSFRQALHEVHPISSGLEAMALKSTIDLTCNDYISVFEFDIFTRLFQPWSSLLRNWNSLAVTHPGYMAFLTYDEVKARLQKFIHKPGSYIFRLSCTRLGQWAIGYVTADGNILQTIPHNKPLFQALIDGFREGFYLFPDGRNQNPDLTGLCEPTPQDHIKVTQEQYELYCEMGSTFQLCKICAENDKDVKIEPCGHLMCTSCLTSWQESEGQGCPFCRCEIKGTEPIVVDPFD
How it was run: (§1)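 First, the insect-cell-expressed protein is biotinylated at its amino-terminal AviTag with BirA and coupled to SA-Tb. Next, the tracer KD is determined for each protein. Finally, compounds are titrated three-fold in duplicate […], at 2% DMSO, and Ki is reported as a geometric mean.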

CBL-B (residues 36-427) = molecular target: T2, CBL-B (residues 36-427) (Homo sapiens, UniProt Q13191); test: Ligand Displacement Assay (LDA), HTRF competitive binding against BODIPY-labeled fluorescent tracer, CBL-B; details: geometric mean of the number of tests, read-out: CBL-B Ki (nM) GMean
T2 construct: Purified CBL-B (residues 36-427) and C-CBL (residues 46-435) proteins from baculovirus-infected insect cells; made in house; host or cells: baculovirus-infected insect cells
How it was run: as §1

CBL-B = molecular target: T3, CBL-B (Homo sapiens, UniProt Q13191); test: Jurkat HiBit-IL2 assay (c-CBL KO), reporter cell line expressing CBL-B only; format: cell-based; details: geometric mean, read-out: C-CBL KO EC50 (nM) GMean
T3 construct: endogenous in cells; host or cells: Jurkat HiBit-IL2 reporter cells, C-CBL knocked out by CRISPR
Description: (§2) Jurkat HiBit-IL2 Assay (WT, c-CBL KO, CBL-B KO)
(§3) The purpose of the Jurkat HiBit-IL2 assay is to evaluate the effect of the inhibition of CBL-B and/or C-CBL on TCR/CD28 stimulated interleukin-2 (IL-2) secretion.
(§4) The expression of IL-2 can then be accurately measured by HiBit luciferase assay. Further, C-CBL or CBL-B was knocked out by CRISPR respectively in this Jurkat HiBit-IL2 reporter cell line to create reporter cell line expressing CBL-B only (c-CBL knockout (KO)) or C-CBL only (CBL-B KO).
(§5) All three reporter cell lines were maintained in RPMI-1640 media with GlutaMax, 10% fetal bovine serum, 100 units/ml of penicillin, and 100 μg/ml of streptomycin at 37° C., 5% CO2, at a cell density 1×10e5-2×10e6 viable cells/ml. Serial diluted compounds in DMSO (40 nl/well, final 0.1% DMSO in assay cell culture) were plated into 384-well white-wall clear-bottom cell culture plates. Reporter cells were pelleted and resuspended in fresh cell culture medium to 0.66×10e6 cells/ml and added to the assay plate at 30 μl/well (20,000 cells/well). The cells were incubated with compounds for 1 hour at 37° C., 5% CO2. 10 μl/well of anti-CD3 antibody (OKT3) and anti-CD28 antibody (CD28.2) prediluted in fresh cell culture medium at 4× final concentration (anti-CD3 mAb: 4 μg/ml; anti-CD28 mAb: 8 μg/ml) was added into the cells (final concentration of anti-CD3 mAb: 1 μg/ml; anti-CD28 mAb: 2 μg/ml). The cells were cultured for another 4 hours at 37° C., 5% CO2. The Nano-Glo HiBiT Lytic Reagent was prepared following the manufacturer's protocol. 20 ul/well of the Nano-Glo HiBiT Lytic Reagent was added into the reporter cell culture assay plate and incubated at room temperature (20-25° C.) for 15 minutes. The plates were read on a Perkin-Elmer EnVision plate reader with 0.1 second integration time. Data were normalized to “Fold of Effect” with the anti-CD3 and anti-CD28 antibodies only samples as the baseline activation level and EC50 was calculated. The EC50 (nM) values reported are the geometric means (GMean) of the number of tests conducted.

C-CBL = molecular target: T4, C-CBL (Homo sapiens, UniProt P22681); test: Jurkat HiBit-IL2 assay (CBL-B KO), reporter cell line expressing C-CBL only; format: cell-based; details: geometric mean, read-out: CBL-B KO EC50 (nM) GMean
T4 construct: endogenous in cells; host or cells: Jurkat HiBit-IL2 reporter cells, CBL-B knocked out by CRISPR
Description: as §2, §3, §4, §5

WT CBL-B (36-427) = molecular target: T5, WT CBL-B (36-427) (Homo sapiens, UniProt Q13191); test: Surface Plasmon Resonance (SPR) assay, binding affinity and kinetics, CBL-B; details: SPR at 10° C., biotinylated WT CBL-B (36-427) on streptavidin chip; geometric mean; read-out: CBL-B SPR Kd (nM) GMean
T5 construct: N-terminal biotinylated WT CBL-B (36-427) and C-CBL (46-435) were captured on a streptavidin (SA) coated sensor chip
How it was run: (§6)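 Biotinylated WT CBL-B (36-427) or C-CBL (46-435) captured on streptavidin chip (~5000–6000 RU); binding at 10° C in HEPES buffer pH 7.2 with 2% DMSO. Multi-cycle: 2-fold, 10-point series from 10 or 100 μM, 90 s association. Single-cycle: 3-fold, 6-point, 0.001–1 μM, 120 s association, >5400 s dissociation.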

C-CBL (46-435) = molecular target: T6, C-CBL (46-435) (Homo sapiens, UniProt P22681); test: Surface Plasmon Resonance (SPR) assay, binding affinity and kinetics, C-CBL; details: SPR at 10° C., biotinylated C-CBL (46-435) on streptavidin chip; geometric mean; read-out: C-CBL SPR Kd (nM) GMean
T6 construct: N-terminal biotinylated WT CBL-B (36-427) and C-CBL (46-435) were captured on a streptavidin (SA) coated sensor chip
T6 sequence (P22681 46-435): T1 sequence (P22681 46-435)
How it was run: as §6

[1] = C-CBL KO (expressing CBL-B only), Table 16b (further repetition)
[2] = CBL-B KO (expressing C-CBL only), Table 16b (further repetition)
[3] = c-CBL KO (CBL-B only), anti-CD3/anti-CD28 stimulation 4 hours, Table 16a
[4] = CBL-B KO (C-CBL only), anti-CD3/anti-CD28 stimulation 4 hours, Table 16a

SMILES	Ki (C-CBL (residues 46-435)) [nM]	Ki (CBL-B (residues 36-427)) [nM]	EC50 (CBL-B; [1]) [nM]	EC50 (C-CBL; [2]) [nM]	EC50 (CBL-B; [3]) [nM]	EC50 (C-CBL; [4]) [nM]	Kd (WT CBL-B (36-427)) [nM]	Kd (C-CBL (46-435)) [nM]
CCC(CC)(CO)N[C@H](C)c1nc(C(F)(F)F)cc2c(-c3cccc([C@H](c4nncn4C)C4CCC4)c3)n[nH]c12 (single isomer, unassigned) [Example D75]	128	11	195	1030	–	–	–	–
C[C@@H](N[C@@H]1CC[C@H](O)C1)c1nc(C(F)(F)F)cc2c(-c3cccc([C@H](c4nncn4C)C4CCC4)c3)n[nH]c12 [Example C118, (1S,3R)-3-({(1R)-1-[3-{3-[(R)-cyclobutyl(4-methyl-4H-1,2,4-triazol-3-yl)methyl]phenyl}-5-(trifluoromethyl)-1H-pyrazolo[3,4-c]pyridin-7-yl]ethyl}amino)cyclopentanol]	25.5	2.1	46	338	–	–	–	–
C[C@H](NC1(CO)CCC1)c1nc(C(F)(F)F)cc2c(-c3cccc([C@H](c4nncn4C)C4CCC4)c3)n[nH]c12 (single isomer, unassigned) [Example D72]	116	8.7	103	563	–	–	–	–
CC(NC[C@H](C)O)c1nc(C(F)(F)F)cc2c(-c3cccc([C@H](c4nncn4C)C4CCCCC4)c3)n[nH]c12 (single isomer, unassigned) [Example C99]	13.8	3.1	44	323	–	–	–	–
C[C@@H](NC1(CO)CCC1)c1nc(C(F)(F)F)cc2c(-c3cccc([C@H](c4nncn4C)C4CCC4)c3)n[nH]c12 (single isomer, unassigned) [Example D73]	157	12.1	118	639	–	–	–	–
C[C@@H](N[C@H]1CCC[C@@H]1O)c1nc(C(F)(F)F)cc2c(-c3cccc([C@H](c4nncn4C)C4CCC4)c3)n[nH]c12 (single isomer, unassigned) [Example C46]	67.8	9.4	61	330	36	392	–	–
C[C@H](N[C@@H]1COC[C@@H]1O)c1nc(C(F)(F)F)cc2c(-c3cccc([C@H](c4nncn4C)C4CCC4)c3)n[nH]c12 (single isomer, unassigned) [Example D20]	2.3	1.7	11	31	4	30	–	–
C[C@@H](NC1CC[C@H]1O)c1nc(C(F)(F)F)cc2c(-c3cccc([C@H](c4nncn4C)C4CCC4)c3)n[nH]c12 (single isomer, unassigned) [Example D31]	27.3	4	56	258	16	199	–	–
CC(NC[C@H](C)O)c1nccc2c(-c3cccc([C@H](c4nncn4C)C4CCC4)c3)n[nH]c12 (single isomer, unassigned) [Example C124]	109	7.9	348	3280	–	–	–	–
C[C@@H](CO)N[C@H](C)c1nc(C(F)(F)F)cc2c(-c3cccc([C@H](c4nncn4C)C4CCC4)c3)n[nH]c12 (single isomer, unassigned) [Example D63]	67	8.4	121	577	–	–	–	–
CC(NCCO)c1nc(C(F)(F)F)cc2c(-c3cccc([C@H](c4nncn4C)C4CCC4)c3)n[nH]c12 (single isomer, unassigned) [Example C42]	28.2	2.5	94	635	29	316	–	–
CC(NCC(C)(C)O)c1nc(C(F)(F)F)cc2c(-c3cccc([C@H](c4nncn4C)C4CCC4)c3)n[nH]c12 (single isomer, unassigned) [Example C45]	22.1	2.5	30	115	14	102	–	–
C[C@H](c1nc(C(F)(F)F)cc2c(-c3cccc([C@H](c4nncn4C)C4CCC4)c3)n[nH]c12)N1CC(C)(O)C1 (single isomer, unassigned) [Example D67]	78.5	10.9	321	1520	–	–	–	–
C[C@H](N[C@@H]1COC[C@H]1O)c1nc(C(F)(F)F)cc2c(-c3cccc([C@H](c4nncn4C)C4CCC4)c3)n[nH]c12 (single isomer, unassigned) [Example D59]	26.6	2.6	267	1260	–	–	–	–
C[C@@H](c1nc(C(F)(F)F)cc2c(-c3cccc([C@H](c4nncn4C)C4CCC4)c3)n[nH]c12)N1CC(C)(O)C1 (single isomer, unassigned) [Example D66]	22.1	2.6	72	409	–	–	–	–
C[C@@H](N[C@@H]1CC[C@@H]1O)c1nc(C(F)(F)F)cc2c(-c3cccc([C@H](c4nncn4C)C4CCC4)c3)n[nH]c12 (single isomer, unassigned) [Example D29]	23.7	1.9	36	224	11	139	–	–
C[C@@H](N[C@@H]1CC[C@H]1O)c1nc(C(F)(F)F)cc2c(-c3cccc([C@H](c4nncn4C)C4CCC4)c3)n[nH]c12 (single isomer, unassigned) [Example D24]	22.3	2.2	58	452	22	285	–	–
Cn1cnnc1[C@@H](c1cccc(-c2n[nH]c3c(CN[C@@H]4CCC(F)(F)C4)nc(C(F)(F)F)cc23)c1)C1CCC1 [Example C5, (1R)-N-{[3-{3-[(R)-cyclobutyl(4-methyl-4H-1,2,4-triazol-3-yl)methyl]phenyl}-5-(trifluoromethyl)-1H-pyrazolo[3,4-c]cyclopen-7-yl]methyl}-3,3-difluorocyclopentan-1-amine]	526	55.3	–	–	–	1250	3.4	203
